Measurements taken from USRE48461E1, “Modulation of androgen receptor expression” (Ionis Pharmaceuticals, Inc., priority 2012, dated 2021).
Oligonucleotides are written 5' to 3', each unit as a sugar letter and its base; * is a phosphorothioate linkage, no mark a phosphodiester; rarer units and linkages stand in square brackets, end groups in braces. Plain capitals give the bases only. k = constrained ethyl (cEt); [5mC] = 5-methylcytosine; d = 2'-deoxy (DNA)

Legend:
[1] = system: AR mRNA; test: Dose-dependent antisense inhibition of human AR in HuVEC cells (electroporation, qRT-PCR RTS3559, IC50); assay type: cell-based; conditions: HuVEC, electroporation, approximately 16 hours
Procedure, shortened: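 HuVEC cells dosed with antisense oligonucleotides by electroporation and treated approximately 16 hours. AR mRNA quantified by real-time qPCR with primer probe set RTS3559 and normalised to total RNA by RIBOGREEN; IC50 from dose-response.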

[2] = system: AR mRNA; test: Antisense inhibition of human AR in HuVEC cells, single concentration (electroporation, qRT-PCR RTS3559); assay type: cell-based; conditions: 500 nM ASO, ~24 h, Table 18
Procedure, shortened: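 HuVEC cells electroporated with antisense oligonucleotides at a single concentration. AR mRNA quantified by qRT-PCR using human primer-probe set RTS3559 and normalised to total RNA content by RIBOGREEN.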

Substance | percent inhibition of AR, 46.9 nM ([1]; Table 30) [%] | percent inhibition of AR, 187.5 nM ([1]; Table 30) [%] | percent inhibition of AR, 750.0 nM ([1]; Table 30) [%] | percent inhibition of AR, 3000.0 nM ([1]; Table 30) [%] | IC50 ([1]; Table 30) [µM] | % inhibition [2] [%] | percent inhibition of AR, 46.9 nM ([1]; Table 31) [%] | percent inhibition of AR, 187.5 nM ([1]; Table 31) [%] | percent inhibition of AR, 750.0 nM ([1]; Table 31) [%] | percent inhibition of AR, 3000.0 nM ([1]; Table 31) [%] | IC50 ([1]; Table 31) [µM]
583692 (antisense kG*kT*kG*dA*dT*dG*dA*dT*dG*d[5mC]*dG*dG*dT*kA*kG*kT) [compound 583692] | 8 | 47 | 61 | 71 | 0.44 | 41 |  |  |  |  | 
583693 (antisense k[5mC]*kT*kG*dT*dG*dA*dT*dG*dA*dT*dG*d[5mC]*dG*kG*kT*kA) [compound 583693] |  |  |  |  |  | 36 | 12 | 39 | 64 | 80 | 0.38
583700 (antisense kG*kA*kA*dG*dA*dG*dT*dT*d[5mC]*dA*dA*d[5mC]*dA*kG*kG*k[5mC]) [compound 583700] |  |  |  |  |  | 36 | 14 | 34 | 57 | 71 | 0.55
583709 (antisense kG*k[5mC]*kT*dT*dG*dG*d[5mC]*dT*dG*dA*dA*dT*d[5mC]*kT*kT*k[5mC]) [compound 583709] | 8 | 50 | 70 | 84 | 0.29 | 39 |  |  |  |  | 
583712 (antisense k[5mC]*k[5mC]*kT*dT*dG*dA*dG*d[5mC]*dT*dT*dG*dG*d[5mC]*kT*kG*kA) [compound 583712] | 15 | 47 | 72 | 78 | 0.29 | 37 |  |  |  |  | 
583713 (antisense kA*kT*k[5mC]*d[5mC]*dT*dT*dG*dA*dG*d[5mC]*dT*dT*dG*kG*k[5mC]*kT) [compound 583713] |  |  |  |  |  | 36 | 29 | 51 | 67 | 74 | 0.22
583714 (antisense kT*k[5mC]*k[5mC]*dA*dT*d[5mC]*d[5mC]*dT*dT*dG*dA*dG*d[5mC]*kT*kT*kG) [compound 583714] |  |  |  |  |  | 36 | 22 | 34 | 59 | 79 | 0.4
583719 (antisense kG*kT*kA*dG*dG*dT*d[5mC]*dT*dT*dG*dG*dA*d[5mC]*kG*kG*k[5mC]) [compound 583719] |  |  |  |  |  | 36 | 22 | 46 | 65 | 72 | 0.32
583727 (antisense kG*kA*kT*dT*d[5mC]*dT*dG*dG*dA*dA*dA*dG*d[5mC]*kT*k[5mC]*k[5mC]) [compound 583727] | 18 | 49 | 70 | 76 | 0.29 | 40 |  |  |  |  | 
583728 (antisense kG*k[5mC]*kT*d[5mC]*dT*dG*dG*dA*dA*d[5mC]*dA*dG*dA*kT*kT*k[5mC]) [compound 583728] | 9 | 48 | 67 | 70 | 0.4 | 45 |  |  |  |  | 
583731 (antisense k[5mC]*kG*k[5mC]*dG*d[5mC]*dA*d[5mC]*dG*d[5mC]*dT*d[5mC]*dT*dG*kG*kA*kA) [compound 583731] |  |  |  |  |  | 34 | 18 | 24 | 47 | 58 | 1.31
